Test results published in patent US20030176479A1, “Use of selective EP4 receptor agonists for the treatment of liver failure, loss of patency of the ductus arteriosus, glaucoma or ocular hypertension” (priority 2002, published 2003).

Tests used:
[1] = biological target: T1, rat EP4 receptor (Rattus norvegicus, UniProt P43114); assay: Rat EP4 receptor binding assay (3H-PGE2 displacement, 293S cell membranes); conditions: displacement of 3H-prostaglandin E2, 293S membranes, 1 hour at 25° C.
T1 construct: expressed in transfected cells
T1 sequence (P43114 whole entry): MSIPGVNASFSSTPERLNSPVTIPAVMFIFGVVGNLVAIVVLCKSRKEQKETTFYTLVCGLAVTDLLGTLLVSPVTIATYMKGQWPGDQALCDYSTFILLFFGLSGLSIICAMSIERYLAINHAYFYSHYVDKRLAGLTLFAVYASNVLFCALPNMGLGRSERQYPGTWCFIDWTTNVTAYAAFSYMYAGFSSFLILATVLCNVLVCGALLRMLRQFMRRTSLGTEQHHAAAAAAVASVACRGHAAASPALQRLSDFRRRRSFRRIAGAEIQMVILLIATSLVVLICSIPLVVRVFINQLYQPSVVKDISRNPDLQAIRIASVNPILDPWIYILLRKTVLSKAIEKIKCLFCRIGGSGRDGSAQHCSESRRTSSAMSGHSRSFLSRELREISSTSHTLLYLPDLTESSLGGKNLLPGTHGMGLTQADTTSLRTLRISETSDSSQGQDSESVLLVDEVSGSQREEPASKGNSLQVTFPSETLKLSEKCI
From the text: (§1) The compounds of Formula I or II, which are useful in the methods of the present invention, bind to the prostaglandin E2 type 4 receptor (EP4 receptor). The full-length coding sequence for the human EP1 receptor is made in accordance with the procedure in Funk et al., Journal of Biological Chemistry, 1993, 268, 26767-26772. The full-length rat EP2 receptor is made in accordance with the procedure in Nemoto et al., Prostaglandins and other Lipid Mediators, 1997, 54, 713-725. The full-length coding sequence for the human EP3 receptor is made in accordance with the procedure in Regan et al., British Journal of Pharmacology, 1994, 112, 377-385. The full-length coding sequence for the rat EP4 receptor is made in accordance with the procedure in Sando et al., Biochem. Biophys. Res. Comm. 1994, 200,1329-1333. These full-length receptors are used to prepare 293S cells expressing the human EP1, rat EP2, human EP3 or rat EP4 receptors.
(§2) Human EP1, Rat EP2, Human EP3, Rat EP4 Receptor Binding Assay
(§3) The full-length receptors described above are used to prepare 293S cells expressing the EP1, EP2, EP3, and EP4 receptors.
(§4) 293S cells expressing either the human EP1, rat EP2, human EP3 or rat EP4 prostaglandin E2 receptors are generated according to methods known to those skilled in the art. Typically, PCR (polymerase chain reaction) primers corresponding to the 5′ and 3′ ends of the published full length receptor are made according to the well known methods disclosed above and are used in an RT-PCR (reverse transcriptase-polymerase chain reaction) reaction using the total RNA from human kidney (for EP1), rat kidney (for EP2), human lung (for EP3), or rat kidney (EP4) as a source. PCR products are cloned by the TA overhang method into pCR2.1 (Invitrogen Corporation, Carlsbad, Calif.) and identity of the cloned receptor is confirmed by DNA sequencing. For expression of the rat EP2 receptor, the confirmed cDNA is subcloned into the mammalian expression vector PURpCl, a vector generated by subcloning the selectable marker for puromycin resistance into the mammalian expression vector pCl (Promega, Madison, Wis.)
(§5) 293S cells are transfected with either the cloned human EP1 or EP3 receptor in pcDNA3 by electroporation. Stable cell lines expressing either the human EP1 or EP3 receptor are established following selection of transfected cells with G418. 293S cells are transfected with the cloned rat EP2 receptor in PURpCi by lipid mediated transfection. Stable cell lines expressing the rat EP2 receptor are established following selection of transfected cells with puromycin. 293S cells are transfected with the cloned rat EP4 receptor in pcDNA3 by lipid mediated transfection. Stable cell lines expressing the rat EP4 receptor are established following selection of transfected cells with Geneticin® (Invitrogen, Carlsbad, Calif.).
(§6) Clonal cell lines expressing the maximal number of receptors are chosen following a whole cell ^3H-PGE2 binding assay using unlabeled PGE2 as a competitor.
(§7) Membrane Preparation: All operations are performed at 4° C. Transfected cells expressing either prostaglandin E2 type 1, type 2, type 3, or type 4 (EP1, EP2, EP3, or EP4, respectively) receptors are harvested and suspended to 2 million cells per ml in Buffer A [50 mM Tris-HCl (pH 7.4), 10 mM MgCI2, 1 mM EDTA, 1 mM Pefabloc peptide, (Boehringer Mannheim Corp., Indianapolis, Ind.), 10 uM Phosporamidon peptide, (Sigma, St. Louis, Mo.), 1 uM pepstatin A peptide, (Sigma, St. Louis, Mo.), 10 uM elastatinal peptide, (Sigma, St. Louis, Mo.), 100 uM antipain peptide, (Sigma, St. Louis, Mo.)]. The cells are lysed by sonification with a Branson Sonifier (Branson Ultrasonics Corporation, Danbury, Conn.) in 2 fifteen-second bursts. Unlysed cells and debris are removed by centrifugation at 100 ×g for 10 min. Membranes are then harvested by centrifugation at 45,000×g for 30 minutes. […]

[2] = biological target: T2, human EP3 receptor (Homo sapiens, UniProt P43115); assay: Human EP3 receptor binding assay (3H-PGE2 displacement, 293S cell membranes); conditions: displacement of 3H-prostaglandin E2, 293S membranes, 1 hour at 25° C.
T2 construct: expressed in transfected cells
T2 sequence (P43115 1-390): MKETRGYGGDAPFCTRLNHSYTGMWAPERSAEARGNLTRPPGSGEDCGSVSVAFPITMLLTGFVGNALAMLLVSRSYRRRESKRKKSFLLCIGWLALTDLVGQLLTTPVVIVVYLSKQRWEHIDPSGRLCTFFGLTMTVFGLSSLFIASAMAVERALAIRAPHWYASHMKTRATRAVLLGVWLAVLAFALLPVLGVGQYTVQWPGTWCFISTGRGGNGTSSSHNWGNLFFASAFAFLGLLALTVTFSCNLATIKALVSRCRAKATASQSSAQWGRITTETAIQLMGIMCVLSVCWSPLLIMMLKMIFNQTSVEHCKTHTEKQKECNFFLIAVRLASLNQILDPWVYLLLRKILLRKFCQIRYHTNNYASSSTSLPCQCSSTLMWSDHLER
From the text: as §1, §2, §3, §4, §5, §6, §7

[3] = biological target: T3, human EP1 receptor (Homo sapiens, UniProt P34995); assay: Human EP1 receptor binding assay (3H-PGE2 displacement, 293S cell membranes); conditions: displacement of 3H-prostaglandin E2, 293S membranes, 1 hour at 25° C.
T3 construct: expressed in transfected cells
T3 sequence (P34995 1-402): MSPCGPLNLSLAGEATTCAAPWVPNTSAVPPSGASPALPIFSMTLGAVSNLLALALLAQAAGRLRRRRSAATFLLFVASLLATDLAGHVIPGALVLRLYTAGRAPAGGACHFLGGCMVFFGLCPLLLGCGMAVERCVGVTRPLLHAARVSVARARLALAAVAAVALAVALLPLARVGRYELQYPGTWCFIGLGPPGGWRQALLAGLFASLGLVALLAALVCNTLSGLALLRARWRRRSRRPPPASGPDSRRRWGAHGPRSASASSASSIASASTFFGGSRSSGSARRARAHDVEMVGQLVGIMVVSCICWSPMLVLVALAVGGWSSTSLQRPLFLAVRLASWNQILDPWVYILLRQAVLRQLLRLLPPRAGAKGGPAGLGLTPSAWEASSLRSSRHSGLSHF
From the text: as §1, §2, §3, §4, §5, §6, §7

[4] = biological target: T4, rat EP2 receptor (Rattus norvegicus, UniProt Q62928); assay: Rat EP2 receptor binding assay (3H-PGE2 displacement, 293S cell membranes); conditions: displacement of 3H-prostaglandin E2, 293S membranes, 1 hour at 25° C.
T4 construct: The full-length rat EP2 receptor is made in accordance with the procedure in Nemoto et al; expressed in transfected cells
T4 sequence (Q62928 whole entry): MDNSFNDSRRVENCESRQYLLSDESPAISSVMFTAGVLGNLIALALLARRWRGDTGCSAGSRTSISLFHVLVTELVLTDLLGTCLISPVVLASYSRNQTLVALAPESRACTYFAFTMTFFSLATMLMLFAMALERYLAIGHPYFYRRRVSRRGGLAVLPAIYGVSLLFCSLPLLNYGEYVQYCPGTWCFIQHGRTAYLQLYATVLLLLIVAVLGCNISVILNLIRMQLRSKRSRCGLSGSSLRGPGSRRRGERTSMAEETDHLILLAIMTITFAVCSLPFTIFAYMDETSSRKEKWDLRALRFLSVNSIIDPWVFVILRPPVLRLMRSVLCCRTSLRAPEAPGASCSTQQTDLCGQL
From the text: as §1, §2, §3, §4, §5, §6, §7

[5] = biological target: T1, rat EP4 receptor; assay: Cyclic AMP elevation in 293S cell lines stably overexpressing recombinant rat EP4 receptors; type: cell-based; conditions: 293S cells expressing rat EP4, 1 mM IBMX, 12 minutes at 37° C.; read-out: EC50 in the cAMP (rat EP4) elevation assay
From the text: Determination of Cyclic AMP Elevation in 293S Cell Lines Stably Overexpressing Recombinant Rat EP4 Receptors Assay
cDNA representing the complete open reading frame of the rat EP4 receptor is generated by reverse transcriptase polymerase chain reaction using oligonucleotide primers based on published sequences. The full length coding sequence for the rat EP4 receptor is made in accordance with the procedure in Sando et al., Biochem. Biophys. Res. Comm. 1994, 200, 1329-1333, and RNA from rat kidney (EP4) as templates. 293S cells are transfected with the cloned rat EP4 receptor in pcDNA3 by lipid mediated transfection. Stable cell lines expressing the rat EP4 receptor are established following selection of transfected cells with Geneticin® (Invitrogen Corporation, Carlsbad, Calif.).
(§8) Clonal cell lines expressing the maximal number of receptors are chosen following a whole cell ^3H-PGE2 binding assay using unlabeled PGE2 as a competitor. […] Constitutive expression of the receptor in parental 293-S cells is negligible. A stable cell line containing the rat EP4 receptor is grown in Dulbecco's Mosified Eagle Medium/F12 (DMEM/F12) containing 10% fetal bovine serum and G418 (500 μg/ml) to 80% confluency.
cAMP responses in the 293-S/EP4 lines are determined by detaching cells from culture flasks in 1 ml of calcium (Ca++) and magnesium (Mg++) deficient phosphate buffered saline (PBS) via vigorous pounding and then rinsing the cells with calcium (Ca++) and magnesium (Mg++) deficient phosphate buffered saline (PBS). The cells are resuspended in MEM (Minimum Essential Medium), 1% BSA (bovine serum albumin), 50 mM HEPES (N-[2-Hydroxyethyl]piperazine-N′-[2-ethanesulfonic acid]) at 37° C. The cell suspension is counted on a hemacytometer and diluted by adding MEM (Minimum Essential Medium) to a final concentration of 1×10^6 cells/ml, and adding 3-isobutyl-1-methylxanthine (IBMX) to a final concentration of 1 mM. 200 microliters of cell suspension is immediately aliquoted into individual tubes and incubated for 10 minutes, uncovered, at 37° C., 5% CO2, 95% relative humidity. The compound of Formula I or II to be tested in either dimethylsulfoxide (DMSO) or ethanol is then added to cells at 1:100 dilutions such that the final DMSO or ethanol concentration is 1%. Typically, the cells are treated with 6-8 different concentrations (in 1 log increments, such as those described below) of the compound of Formula I or II. Typical concentrations of the compound of Formula I or II in this assay are between 10^−5M to 10^−10M. For example, a six point compound dose response assay tests the compound of Formula I or II at concentrations of 10^−5M, 10^−6M, 10^−7M, 10^−8M, 10^−9M and 10^—10M. Immediately after adding the test compound, the tubes are covered, mixed by inverting two times, and incubated at 37° C. for 12 minutes. Samples are then lysed by incubation at 100° C. for 10 minutes and immediately cooled on ice for 5 minutes to approximately 4° C. Cellular debris is pelleted by centrifugation at 3500×g for 5 minutes at approximately 4° C., and cleared lysates are transferred to fresh tubes. cAMP concentrations are determined using a commercially available ^125I-cAMP radioimmunoassay (RIA) kit (NEK-033, Perkin-Elmer Life Sciences, Inc., Boston, Mass.). The cleared lysates are diluted 1:100 in cAMP RIA assay buffer (included in kit) and centrifuged again. 50 microliters of the resulting supernatant is transferred to a 12×75 mm glass tube and data is collected by scintillation counting using a Wallac Cobra II Gamma Counter (Perkin-Elmer Wallac, Inc., Gaithersburg, Md.). EC50 calculations are performed on a calculator using linear regression analysis on the linear portion of the dose response curves or using Data Fitter.

[6] = biological target: T1, rat EP4 receptor; assay: Whole cell 3H-PGE2 binding, Scatchard analysis of 293S/EP4 transfectants; conditions: cell lines selected for compound screening
Protocol: as §8

IC50 [1] [nM]	IC50 [2] [nM]	IC50 [3] [nM]	IC50 [4] [nM]	EC50 [5] [nM]	Kd [6] [nM]	SMILES
508	> 3200	> 3200	> 3200			O=C1CCC(CCC(O)Cc2ccc(F)cc2)N1CCCCCCc1nn[nH]n1 (stereo not drawn) [Example 5, 5-[4-(4-Fluoro-phenyl)-3-hydroxy-butyl]-1-[6-(2H-tetrazol-5-yl)-hexyl]-pyrrolidin-2-one]
96			> 3200	200		O=C1CCC(CCC(O)Cc2cccc(F)c2)N1CCCCCCc1nn[nH]n1 (stereo not drawn) [Example 7, 5-[4-(3-Fluoro-phenyl)-3-hydroxy-butyl]-1-[6-(2H-tetrazol-5-yl)-hexyl]-pyrrolidin-2-one]
28			> 3200	24.6		O=C1CC[C@H](CC[C@@H](O)Cc2cccc(Cl)c2)N1CCCCCCc1nn[nH]n1 [Example 8, 5S-[4-(3-Chloro-phenyl)-3R-hydroxy-butyl]-1-[6-(2H-tetrazol-5-yl)-hexyl]-pyrrolidin-2-one]
536						O=C(O)CCCCCCN1C(=O)CC[C@@H]1CCC(O)Cc1cccc(Oc2ccccc2)c1 (stereo partly drawn) [Example 10, 7-{2S-[3-Hydroxy-4-(3-phenoxy-phenyl)-butyl]-5-oxo-pyrrolidin-1-yl}-heptanoic acid]
					2.9	CCCCC[C@H](O)/C=C/[C@H]1[C@H](O)CC(=O)[C@@H]1C/C=C\CCCC(=O)O [PGE2, Prostaglandin E2]
